# Biological target: PAPD5 enzyme (Homo sapiens, UniProt Q8NDF8)
# Assay: PAPD5 assay (AMP incorporation onto 3'-terminus of RNA substrate, fluorescence quench)
# Format: biochemical
# Settings: PAPD5 protein 0.3 nM, ATP 50 μM, 30 minutes preincubation, room temperature; read-out: Potency PAPD5 IC50
# Outline: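 Enzyme at 0.3 nM with 50 μM ATP, pH 7.3 HEPES buffer, preincubated with compound 30 minutes at room temperature; 5 nM 5′-fluorescein RNA substrate and 20 nM TAMRA quench probe then added. Initial rates from kinetic fluorescein decrease over ~90 minutes; IC50 by four-parameter fit.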
# Chain of PAPD5 enzyme (Q8NDF8 whole entry): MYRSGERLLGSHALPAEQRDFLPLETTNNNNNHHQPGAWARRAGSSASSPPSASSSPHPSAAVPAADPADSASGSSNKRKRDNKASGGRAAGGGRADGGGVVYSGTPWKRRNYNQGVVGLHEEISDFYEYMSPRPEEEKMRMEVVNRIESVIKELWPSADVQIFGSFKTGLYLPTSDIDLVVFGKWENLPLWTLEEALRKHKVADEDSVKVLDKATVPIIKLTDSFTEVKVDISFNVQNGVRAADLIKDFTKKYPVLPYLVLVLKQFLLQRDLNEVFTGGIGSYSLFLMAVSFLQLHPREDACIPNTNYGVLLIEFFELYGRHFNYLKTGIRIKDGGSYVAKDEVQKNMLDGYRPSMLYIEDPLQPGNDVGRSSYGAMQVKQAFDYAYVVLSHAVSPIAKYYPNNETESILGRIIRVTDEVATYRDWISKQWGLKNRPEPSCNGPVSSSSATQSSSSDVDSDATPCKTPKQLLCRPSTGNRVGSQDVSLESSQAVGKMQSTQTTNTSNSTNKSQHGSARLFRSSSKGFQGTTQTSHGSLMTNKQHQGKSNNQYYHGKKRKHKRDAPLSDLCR
row,IC50 [nM],Compound
1,≤ 1000,"Cc1cc(N)ncc1-n1cc(C(=O)O)c(=O)c2cc(Cl)c(-n3ccc(N(C)C)n3)nc21 [Example 162, 1-(6-amino-4-methylpyridin-3-yl)-6-chloro-7-(3-(dimethylamino)-1H-pyrazol-1-yl)-4-oxo-1,4-dihydro-1,8-naphthyridine-3-carboxylic acid]"
2,≤ 1000,"CNc1cc(C)c(-n2cc(C(=O)O)c(=O)c3cc(Cl)c(N4Cc5cccnc5C4)nc32)cn1 [Example 170, 6-chloro-7-(5,7-dihydro-6H-pyrrolo[3,4-b]pyridin-6-yl)-1-(4-methyl-6-(methylamino)pyridin-3-yl)-4-oxo-1,4-dihydro-1,8-naphthyridine-3-carboxylic acid]"
3,≤ 1000,"CNCCNc1cc(C)c(-n2cc(C(=O)O)c(=O)c3cc(Cl)c(N4Cc5cccnc5C4)nc32)cn1 [Example 171, 6-chloro-7-(5,7-dihydro-6H-pyrrolo[3,4-b]pyridin-6-yl)-1-(4-methyl-6-((2-(methylamino)ethyl)amino)pyridin-3-yl)-4-oxo-1,4-dihydro-1,8-naphthyridine-3-carboxylic acid]"
4,≤ 1000,"Cc1cc(NCCN2CCCCC2)ncc1-n1cc(C(=O)O)c(=O)c2cc(Cl)c(N3Cc4cccnc4C3)nc21 [Example 172, 6-chloro-7-(5,7-dihydro-6H-pyrrolo[3,4-b]pyridin-6-yl)-1-(4-methyl-6-((2-(piperidin-1-yl)ethyl)amino)pyridin-3-yl)-4-oxo-1,4-dihydro-1,8-naphthyridine-3-carboxylic acid]"
5,≤ 1000,"Cc1cc(NC(=O)C2CCC2)ncc1-n1cc(C(=O)O)c(=O)c2cc(Cl)c(N3Cc4cccnc4C3)nc21 [Example 174, 6-chloro-1-(6-(cyclobutanecarboxamido)-4-methylpyridin-3-yl)-7-(5,7-dihydro-6H-pyrrolo[3,4-b]pyridin-6-yl)-4-oxo-1,4-dihydro-1,8-naphthyridine-3-carboxylic acid]"
6,≤ 1000,"Cc1cc(N)ncc1-n1cc(C(=O)O)c(=O)c2cc(Cl)c(N3CCc4ccccc4C3)nc21 [Example 176, 1-(6-amino-4-methylpyridin-3-yl)-6-chloro-7-(3,4-dihydroisoquinolin-2(1H)-yl)-4-oxo-1,4-dihydro-1,8-naphthyridine-3-carboxylic acid]"
7,≤ 1000,"Cc1cc(N(C)CCN2CCCCC2)ncc1-n1cc(C(=O)O)c(=O)c2cc(Cl)c(N3Cc4cccnc4C3)nc21 [Example 177, 6-chloro-7-(5,7-dihydro-6H-pyrrolo[3,4-b]pyridin-6-yl)-1-(4-methyl-6-(methyl(2-(piperidin-1-yl)ethyl)amino)pyridin-3-yl)-4-oxo-1,4-dihydro-1,8-naphthyridine-3-carboxylic acid]"
8,≤ 1000,"COc1cccc2c1CN(c1nc3c(cc1Cl)c(=O)c(C(=O)O)cn3-c1cnc(N)cc1C)C2 [Example 178, 1-(6-amino-4-methylpyridin-3-yl)-6-chloro-7-(4-methoxyisoindolin-2-yl)-4-oxo-1,4-dihydro-1,8-naphthyridine-3-carboxylic acid]"
9,≤ 1000,"Cc1cc(N)ncc1-n1cc(C(=O)O)c(=O)c2cc(Cl)c(N3Cc4cncnc4C3)nc21 [Example 179, 1-(6-amino-4-methylpyridin-3-yl)-6-chloro-7-(5,7-dihydro-6H-pyrrolo[3,4-d]pyrimidin-6-yl)-4-oxo-1,4-dihydro-1,8-naphthyridine-3-carboxylic acid]"
10,≤ 1000,"Cc1cc(N)ncc1-n1cc(C(=O)O)c(=O)c2cc(Cl)c(N3CCc4cccnc4C3)nc21 [Example 180, 1-(6-amino-4-methylpyridin-3-yl)-6-chloro-7-(5,8-dihydro-1,7-naphthyridin-7(6H)-yl)-4-oxo-1,4-dihydro-1,8-naphthyridine-3-carboxylic acid]"
11,≤ 1000,"Cc1cc(N)ncc1-n1cc(C(=O)O)c(=O)c2cc(F)c(N3CCc4ccccc4C3)cc21 [Example 181, 1-(6-amino-4-methylpyridin-3-yl)-7-(3,4-dihydroisoquinolin-2(1H)-yl)-6-fluoro-4-oxo-1,4-dihydroquinoline-3-carboxylic acid]"
12,≤ 1000,"Cc1cc(N2CCC2)ncc1-n1cc(C(=O)O)c(=O)c2cc(F)c(N3Cc4cccnc4C3)nc21 [Example 183, 1-(6-(azetidin-1-yl)-4-methylpyridin-3-yl)-7-(5,7-dihydro-6H-pyrrolo[3,4-b]pyridin-6-yl)-6-fluoro-4-oxo-1,4-dihydro-1,8-naphthyridine-3-carboxylic acid]"
13,≤ 1000,"Cc1cc(N)ncc1-n1cc(C(=O)O)c(=O)c2cc(Cl)c(N3CCc4ccncc4C3)nc21 [Example 185, 1-(6-amino-4-methylpyridin-3-yl)-6-chloro-7-(3,4-dihydro-2,7-naphthyridin-2(1H)-yl)-4-oxo-1,4-dihydro-1,8-naphthyridine-3-carboxylic acid]"
14,≤ 1000,"Cc1cc(N)ncc1-n1cc(C(=O)O)c(=O)c2cc(Cl)c(N3CCc4ncccc4C3)nc21 [Example 186, 1-(6-amino-4-methylpyridin-3-yl)-6-chloro-7-(7,8-dihydro-1,6-naphthyridin-6(5H)-yl)-4-oxo-1,4-dihydro-1,8-naphthyridine-3-carboxylic acid]"
15,≤ 1000,"Cc1cc(N2CC(N(C)C)C2)ncc1-n1cc(C(=O)O)c(=O)c2cc(Cl)c(N3Cc4cccnc4C3)nc21 [Example 188, 6-chloro-7-(5,7-dihydro-6H-pyrrolo[3,4-b]pyridin-6-yl)-1-(6-(3-(dimethylamino)azetidin-1-yl)-4-meth-ylpyridin-3-yl)-4-oxo-1,4-dihydro-1,8-naphthyridine-3-carboxylic acid]"
16,≤ 1000,"Cc1cc(N2CCC2)ncc1-n1cc(C(=O)O)c(=O)c2cc(Cl)c(N3Cc4cccnc4C3)cc21 [Example 189, 1-(6-(azetidin-1-yl)-4-methylpyridin-3-yl)-6-chloro-7-(5,7-dihydro-6H-pyrrolo[3,4-b]pyridin-6-yl)-4-oxo-1,4-dihydroquinoline-3-carboxylic acid]"
17,≤ 1000,"Cc1cc(N2CCC2)ncc1-n1cc(C(=O)O)c(=O)c2cc(F)c(N3Cc4cccnc4C3)cc21 [Example 190, 1-(6-(azetidin-1-yl)-4-methylpyridin-3-yl)-7-(5,7-dihydro-6H-pyrrolo[3,4-b]pyridin-6-yl)-6-fluoro-4-oxo-1,4-dihydroquinoline-3-carboxylic acid]"
18,≤ 1000,"Cc1cc(N(C)CCN(C)C)ncc1-n1cc(C(=O)O)c(=O)c2cc(Cl)c(N3Cc4cccnc4C3)nc21 [Example 192, 6-chloro-7-(5,7-dihydro-6H-pyrrolo[3,4-b]pyridin-6-yl)-1-(6-((2-(dimethylamino)ethyl)(methyl)amino)-4-methylpyridin-3-yl)-4-oxo-1,4-dihydro-1,8-naphthyridine-3-carboxylic acid]"
19,≤ 1000,"Nc1ccc(-n2cc(C(=O)O)c(=O)c3cc(Cl)c(N4Cc5ccccc5C4)cc32)cn1 [Example 194, 1-(6-aminopyridin-3-yl)-6-chloro-7-(isoindolin-2-yl)-4-oxo-1,4-dihydroquinoline-3-carboxylic acid]"

row,Compound,IC50 [nM]
1,"Cc1cc(NC(=O)OC(C)(C)C)ncc1-n1cc(C(=O)O)c(=O)c2cc(Cl)c(-n3cccn3)nc21 [Example 164, 1-(6-((tert-butoxycarbonyl)amino)-4-methylpyridin-3-yl)-6-chloro-4-oxo-7-(1H-pyrazol-1-yl)-1,4-dihydro-1,8-naphthyridine-3-carboxylic acid]",≤ 1000
2,"Cc1cc(NC(=O)OC(C)(C)C)ncc1-n1cc(C(=O)O)c(=O)c2cc(Cl)c(N3Cc4ccccc4C3)nc21 [Example 165, 1-(6-((tert-butoxycarbonyl)amino)-4-methylpyridin-3-yl)-6-chloro-7-(isoindolin-2-yl)-4-oxo-1,4-dihydro-1,8-naphthyridine-3-carboxylic acid]",≤ 1000
3,"Cc1cc(NC(=O)OC(C)(C)C)ncc1-n1cc(C(=O)O)c(=O)c2cc(Cl)c(N3Cc4cccc(F)c4C3)nc21 [Example 166, 1-(6-((tert-butoxycarbonyl)amino)-4-methylpyridin-3-yl)-6-chloro-7-(4-fluoroisoindolin-2-yl)-4-oxo-1,4-dihydro-1,8-naphthyridine-3-carboxylic acid]",≤ 1000
4,"Cc1cc(NC(=O)OC(C)(C)C)ncc1-n1cc(C(=O)O)c(=O)c2cc(Cl)c(N3Cc4ccncc4C3)nc21 [Example 167, 1-(6-((tert-butoxycarbonyl)amino)-4-methylpyridin-3-yl)-6-chloro-7-(1,3-dihydro-2H-pyrrolo[3,4-c]pyridin-2-yl)-4-oxo-1,4-dihydro-1,8-naphthyridine-3-carboxylic acid]",≤ 1000
5,"Cc1cc(NC(=O)OC(C)(C)C)ncc1-n1cc(C(=O)O)c(=O)c2cc(Cl)c(N3CCc4ccccc4C3)nc21 [Example 175, 1-(6-((tert-butoxycarbonyl)amino)-4-methylpyridin-3-yl)-6-chloro-7-(3,4-dihydroisoquinolin-2(1H)-yl)-4-oxo-1,4-dihydro-1,8-naphthyridine-3-carboxylic acid]",≤ 1000
6,"Cc1cc(NC(=O)OC(C)(C)C)ncc1-n1cc(C(=O)O)c(=O)c2cc(Cl)c(N3CCc4cccnc4C3)nc21 [Example 182, 1-(6-((tert-butoxycarbonyl)amino)-4-methylpyridin-3-yl)-6-chloro-7-(5,8-dihydro-1,7-naphthyridin-7(6H)-yl)-4-oxo-1,4-dihydro-1,8-naphthyridine-3-carboxylic acid]",≤ 1000
7,"Cc1cc(NC(=O)OC(C)(C)C)ncc1-n1cc(C(=O)O)c(=O)c2cc(F)c(N3CCc4ccccc4C3)cc21 [Example 184, 1-(6-((tert-butoxycarbonyl)amino)-4-methylpyridin-3-yl)-7-(3,4-dihydroisoquinolin-2(1H)-yl)-6-fluoro-4-oxo-1,4-dihydroquinoline-3-carboxylic acid]",≤ 1000
8,"Cc1cc(NC(=O)OC(C)(C)C)ncc1-n1cc(C(=O)O)c(=O)c2cc(Cl)c(N3CCc4ccncc4C3)nc21 [Example 187, 1-(6-((tert-butoxycarbonyl)amino)-4-methylpyridin-3-yl)-6-chloro-7-(3,4-dihydro-2,7-naphthyridin-2(1H)-yl)-4-oxo-1,4-dihydro-1,8-naphthyridine-3-carboxylic acid]",≤ 1000

# Reference: patent US20240376100A1 (Redona Therapeutics, Inc., priority 2021, published 2024)
